The record followed here is patent US6630124B1, “Combination therapy with VIP antagonist” (Ramot-University Authority for Applied Research and …, priority 1998, dated 2003).

Data set [1] concerns MCF-7 cells. Kind of data set: MTT colorimetric assay, breast cancer cells (Example 6). The class given is cell-based. The note with it: compared with VIPhyb. The method, then: The ability of VIP receptor antagonists to alter the growth of breast cancer cells was investigated in vitro using the MTT colorimetric. The semiautomated MTT assay measures reduction of a tetrazolium compound by tumor cells to formazan. The optical density at 570 nm was determined for 8 wells at each inhibitor concentration. Seeding densities were 5×10^4 cells/well and cells were grown in 96 well plates for 5 days.

Data set [2] has as its system U-87 cells. Kind of data set: U-87 colony formation in soft agar. The data set is classed as cell-based. Conditions: in vitro. The text has this:
(§1) The effects of VIP receptor antagonists on glioblastoma cell lines were investigated.

Data set [3] has as its system cancer cells. Kind of data set: MTS cell proliferation assay, inhibition of cell growth by SNH. The class given is cell-based. An excerpt: For growth inhibition experiments, subconfluent adherent cells were washed with PBS and treated with trypsin/versene. The cells were pelleted and resuspended in medium to a final concentration of 75,000 cells/mL for NCI-H727. 50,000 cells/mL for LNCaP and HT-29 and 25000 cells/mL for CT-26. These different concentrations were used in order to avoid confluence in the wells at the end of the experiment and correspond to the different doubling times of the cell lines.
On day 0, cells suspensions […] were dispensed using a multi-channel pipet into the individual wells of a 96-well tissue culture plate (Nuncion, Nunc Brand Products). […] Cells were incubated for 24 hours in a humidified atmosphere of 95% air/5% CO2 at 37° C. before treatment. […]
On day 4, viable cell number was determined by a modified MTT assay i.e., MTS non-radioactive cell proliferation assay (Promega). Briefly, […] of freshly prepared MTS/PMS solution was added to each individual well and after 1-3 hours of incubation (the optimal time was determined for each cell line) absorbance at 490 nm was measured using a multiscan plate reader. Results were finally expressed as percentage of the control, which was obtained from the samples with no drug treatment. Dose-response curves were plotted using a Sigma-Plot software and statistically analyzed using Student test. […]

Data set [4] relates to NCI-H727 non-small cell lung cancer (carcinoid). Kind of data set: MTS cell proliferation assay, SNH and chemotherapy. The note with it: 8 μM SNH, 6 hour incubation, then 66 hour fresh medium. The class given is cell-based. The method, then: NCI-H727 and LNCaP were grown in RPMI 1640 medium supplemented with 10% heat inactivated FCS, L-glutamine and antibiotics. HT-29 and CT-26 were grown in DMEM medium supplemented with 10% heat-inactivated FCS (fetal calf serum), L-glutamine and antibiotics. The cells were cultured in 5% CO2/95% air at […] and used during their exponential growth phase. Routinely, the cells which are adherent, were split when a subconfluent monolayer was formed. In different experiments, various concentration of FCS were used. For growth inhibition experiments, subconfluent adherent cells were washed with PBS and treated with trypsin/versene. The cells were pelleted and resuspended in medium to a final concentration of 75,000 cells/mL for NCI-H727. 50,000 cells/mL for LNCaP and HT-29 and 25000 cells/mL for CT-26. These different concentrations were used in order to avoid confluence in the wells at the end of the experiment and correspond to the different doubling times of the cell lines. On day 0, cells suspensions […] were dispensed using a multi-channel pipet into the individual wells of a 96-well tissue culture plate (Nuncion, Nunc Brand Products). […] Cells were incubated for 24 hours in a humidified atmosphere of 95% air/5% CO2 at 37° C. before treatment. On day 1, the cells were treated with different drugs and schedules and maintained under the same conditions. On day 4, viable cell number was determined by a modified MTT assay i.e., MTS non-radioactive cell proliferation assay (Promega). […] Results were finally expressed as percentage of the control, which was obtained from the samples with no drug treatment. Dose-response curves were plotted using a Sigma-Plot software and statistically analyzed using Student test. To determine the effect of the lipophilic VIP antagonist SNH on cell proliferation, cells plated in 96-well microplates for 24 hours as described, were treated with various concentrations of SNH. The peptide was diluted in PBS and […] of the peptide solution was added to each well for a final concentration of the peptide between 10^−510^−9 M. The solvent was added to the control wells. […] A dose-response curve was obtained at concentrations ranging from 2 μM-10 μM (see, FIG. 2). […] The effects of an 8 hours treatment were slightly less, showing that most of the effect is in the initial hours of exposure and much more dose than time dependent. […] For the experiments with the combinations of VIP antagonists and chemotherapeutic agents, on day 0, the cells were plated for 24 hours in medium supplemented with 5% FCS. On day 1, the peptide was added to the wells followed 1 hour later by the chemotherapeutic agents. […] The chemotherapeutic drugs were tested over 7 concentrations, covering as much as possible of the dose response curve of each individual drug. 24 hours later, the medium was exchanged and the cells incubated under the same conditions for another 48 hours. On day 4 the number of viable cells was determined by MTS assay.
(Tetrazolium assays rely on reduction of a dye to a coloured formazan, in cell work by metabolically active cells.)

Data set [5] deals with MCF-7 breast cancer cells. Kind of data set: MTT assay, Taxol with or without SNVIPhyb. The note with it: 10 μM SNVIPhyb, MTT assay. The class given is cell-based. The text has this: The ability of SNVIPhyb to inhibit cancer growth was investigated.
The test system of data set [6] is glioblastoma cell lines. Kind of data set: MTT assay, glioblastoma proliferation. The class given is cell-based.
Description: as §1

The subject of data set [7] is VIP receptor (glioblastoma cells). Kind of data set: cAMP in glioblastoma cells, basal and VIP-stimulated. The data set is classed as cell-based.
Description: as §1

Data set [8] has as its system nonsmall cell lung cancer line. Conditions: 2 mM of the antagonist.
Description: Assays were performed with cell lines derived from colon cancer and prostate cancer. Proliferation was assessed using the MTS colorimetric assay of mitochondrial function for living cells. The VIP antagonist (stearyl-Nle17-neurotensis 6-11 VIP 7-28) was used.

Where a SMILES comes first, the peptide text is derived from it. [ ]: non-standard residue; d: D form. The star is where a group is joined. Stearoyl = CCCCCCCCCCCCCCCCCC(=O)*; Nle = CCCC[C@H](N)C(=O)O

As to `CCCCCCCCCCCCCCCCCC(=O)N[C@@H](CCCCN)C(=O)N1CCC[C@H]1C(=O)N[C@@H](CCCNC(=N)N)C(=O)N[C@@H](CCCNC(=N)N)C(=O)N1CCC[C@H]1C(=O)N[C@@H](Cc1ccc(O)cc1)C(=O)N[C@H](C(=O)N[C@@H](CC(=O)O)C(=O)N[C@@H](CC(N)=O)C(=O)N[C@@H](Cc1ccc(O)cc1)C(=O)N[C@H](C(=O)N[C@@H](CCCNC(=N)N)C(=O)N[C@@H](CC(C)C)C(=O)N[C@@H](CCCNC(=N)N)C(=O)N[C@@H](CCCCN)C(=O)N[C@@H](CCC(N)=O)C(=O)N[C@@H](CCCC)C(=O)N[C@@H](C)C(=O)N[C@H](C(=O)N[C@@H](CCCCN)C(=O)N[C@@H](CCCCN)C(=O)N[C@@H](Cc1ccc(O)cc1)C(=O)N[C@@H](CC(C)C)C(=O)N[C@@H](CC(N)=O)C(=O)N[C@@H](CO)C(=O)N[C@H](C(=O)N[C@@H](CC(C)C)C(=O)N[C@@H](CC(N)=O)C(N)=O)[C@@H](C)CC)C(C)C)[C@@H](C)O)[C@@H](C)O` [SNH] (Stearoyl-KPRRPYTDNYTRLRKQ[Nle]AVKKYLNSILN-NH2), the “relative potency as inhibitor of proliferation” value in data set [1] was “more potent inhibitor than VIPhyb”. For the same molecule, the “relative potency at inhibiting U-87 colony formation” value in data set [2] was “more potent than VIP hybrid”. In addition, the “inhibition of the growth of cancer cells” value in data set [3] (10 mM of SNH) is “significantly inhibits”. Further, in data set [3] (8-10 mM SNH, FCS lower than 2%), the “death of the cancer cells” value is “complete or almost complete death”. The “reduction in viable cells” value in data set [4] came to 40%. Also, the “effect on MCF-7 breast cancer proliferation” value in data set [5] was “little effect”. For the same molecule, in data set [6] (1 μM), the “effect on basal proliferation” value was “little effect”. Moreover, the “interaction with Taxol to inhibit growth” value in data set [6] (1 μM (SN)VIPhybrid with Taxol) is “synergistically interacted”. The “order of peptide potency, inhibition of VIP-stimulated cAMP” value in data set [7] (10 nM VIP) is “(SN)VIPhybrid>VIP hybrid >PTC4495”. In data set [7] (1 μM), the “effect on basal cAMP” value was “no effect”. In data set [7] (1 μM, 10 nM VIP), the “inhibition of the increase in cAMP caused by 10 nM VIP” value is “strongly inhibited”. Further, the growth inhibition in data set [8] was 15-20%.
